Experiment [1] has as its target T1, Mitogen-activated protein kinase kinase kinase 13 (Homo sapiens) (UniProt O43283).
T1 sequence (whole entry): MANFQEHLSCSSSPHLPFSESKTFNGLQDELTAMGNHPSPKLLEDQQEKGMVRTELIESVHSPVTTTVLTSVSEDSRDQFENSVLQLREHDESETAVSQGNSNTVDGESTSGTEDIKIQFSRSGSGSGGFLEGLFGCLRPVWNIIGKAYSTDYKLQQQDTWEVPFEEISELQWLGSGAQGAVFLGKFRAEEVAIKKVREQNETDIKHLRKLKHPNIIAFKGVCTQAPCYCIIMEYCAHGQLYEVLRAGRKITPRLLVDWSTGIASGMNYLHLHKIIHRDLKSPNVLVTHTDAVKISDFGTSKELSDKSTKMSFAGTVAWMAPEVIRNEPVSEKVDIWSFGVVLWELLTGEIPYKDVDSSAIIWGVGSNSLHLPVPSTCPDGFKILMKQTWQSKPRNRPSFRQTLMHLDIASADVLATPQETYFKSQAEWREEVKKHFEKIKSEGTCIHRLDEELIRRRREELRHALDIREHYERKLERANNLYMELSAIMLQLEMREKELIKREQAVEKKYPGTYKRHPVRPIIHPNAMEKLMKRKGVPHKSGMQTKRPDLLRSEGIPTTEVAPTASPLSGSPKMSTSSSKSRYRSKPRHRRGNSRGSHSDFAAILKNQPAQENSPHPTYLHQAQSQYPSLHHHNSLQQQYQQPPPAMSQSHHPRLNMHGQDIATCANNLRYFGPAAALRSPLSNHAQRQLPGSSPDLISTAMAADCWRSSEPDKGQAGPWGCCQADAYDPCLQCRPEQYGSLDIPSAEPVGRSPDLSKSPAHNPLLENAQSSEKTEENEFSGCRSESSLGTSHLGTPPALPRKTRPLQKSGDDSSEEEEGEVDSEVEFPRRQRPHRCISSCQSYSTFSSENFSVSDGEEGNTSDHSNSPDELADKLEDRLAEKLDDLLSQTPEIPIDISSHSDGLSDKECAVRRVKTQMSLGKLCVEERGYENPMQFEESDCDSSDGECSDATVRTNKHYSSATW
Briefly: Selectivity interaction (KinomeScan (DiscoverX)) EUB0000655a MAP3K13. To be noted: at 10 µM.

The target in experiment [2] is Mitogen-activated protein kinase kinase kinase kinase 5 (Homo sapiens) (UniProt Q9Y4K4). Briefly: Selectivity interaction (ActivX KiNativ screen (ex vivo kinase selectivity in human PBMCs)) EUB0001619a MAP4K5. To be noted: PBMC, at 1 µM. In kind it is cell-based.
The target of experiment [3] is Tyrosine-protein kinase Lck (Homo sapiens, UniProt P06239). The experiment can be described thus: Selectivity interaction (Kinase panel (literature)) EUB0001199aCl LCK. The settings on record: at 1 µM.
Experiment [4] has as its target Serine/threonine-protein kinase 38 (Homo sapiens) (UniProt Q15208). The experiment can be described thus: Selectivity interaction (ActivX KiNativ screen (kinase selectivity in THP-1 cell lysates)) EUB0000639a STK38. The format is subcellular. To be noted: lysate, at 5 µM.
Experiment [5] deals with T2, Ephrin type-B receptor 1 (Homo sapiens) (UniProt P54762).
T2 sequence (whole entry): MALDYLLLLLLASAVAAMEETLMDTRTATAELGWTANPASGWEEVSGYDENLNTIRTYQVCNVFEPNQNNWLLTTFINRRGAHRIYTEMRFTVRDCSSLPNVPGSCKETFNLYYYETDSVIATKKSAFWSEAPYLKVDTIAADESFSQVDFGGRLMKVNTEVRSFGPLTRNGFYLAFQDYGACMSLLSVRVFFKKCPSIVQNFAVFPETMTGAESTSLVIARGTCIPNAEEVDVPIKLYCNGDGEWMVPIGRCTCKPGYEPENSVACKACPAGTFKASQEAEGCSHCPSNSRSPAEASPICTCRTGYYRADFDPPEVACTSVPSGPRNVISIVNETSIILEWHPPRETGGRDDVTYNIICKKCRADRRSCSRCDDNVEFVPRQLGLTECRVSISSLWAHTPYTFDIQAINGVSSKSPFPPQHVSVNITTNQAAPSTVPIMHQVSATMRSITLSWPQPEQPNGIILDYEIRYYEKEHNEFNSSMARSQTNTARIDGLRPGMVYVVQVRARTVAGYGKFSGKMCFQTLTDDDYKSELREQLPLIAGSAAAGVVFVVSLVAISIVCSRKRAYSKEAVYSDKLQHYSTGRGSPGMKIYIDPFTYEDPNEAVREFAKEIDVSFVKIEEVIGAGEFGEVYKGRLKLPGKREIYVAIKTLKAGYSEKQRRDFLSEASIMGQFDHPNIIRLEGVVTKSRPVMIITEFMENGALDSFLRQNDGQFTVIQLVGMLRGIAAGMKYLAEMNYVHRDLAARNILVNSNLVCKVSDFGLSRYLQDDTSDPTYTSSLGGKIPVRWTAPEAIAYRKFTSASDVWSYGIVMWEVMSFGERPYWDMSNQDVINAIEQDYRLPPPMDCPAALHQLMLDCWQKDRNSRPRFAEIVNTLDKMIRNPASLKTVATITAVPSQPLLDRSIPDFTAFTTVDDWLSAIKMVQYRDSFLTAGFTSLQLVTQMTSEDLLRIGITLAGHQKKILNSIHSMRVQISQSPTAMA
The experiment can be described thus: Selectivity interaction (KinomeScan (DiscoverX)) EUB0001049a EPHB1. To be noted: at 1 µM.

A further experiment addresses Activated CDC42 kinase 1 (Homo sapiens, UniProt Q07912). Briefly: Selectivity interaction (KinomeScan (DiscoverX)) EUB0000045b TNK2.
The target of experiment [6] is T3, Dual specificity mitogen-activated protein kinase kinase 7 (Homo sapiens) (UniProt O14733).
T3 sequence (whole entry): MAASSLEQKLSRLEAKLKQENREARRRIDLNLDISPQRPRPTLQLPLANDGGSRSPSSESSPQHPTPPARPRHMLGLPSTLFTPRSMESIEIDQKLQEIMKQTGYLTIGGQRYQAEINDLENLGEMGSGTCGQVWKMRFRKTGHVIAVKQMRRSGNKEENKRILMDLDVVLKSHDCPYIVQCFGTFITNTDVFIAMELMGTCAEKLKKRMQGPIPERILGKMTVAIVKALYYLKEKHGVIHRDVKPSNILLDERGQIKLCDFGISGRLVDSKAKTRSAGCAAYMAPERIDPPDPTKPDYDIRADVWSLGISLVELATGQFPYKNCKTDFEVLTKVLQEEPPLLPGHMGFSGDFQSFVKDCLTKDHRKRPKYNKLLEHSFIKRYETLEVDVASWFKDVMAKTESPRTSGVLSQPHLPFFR
The experiment can be described thus: Selectivity interaction (KinomeScan (DiscoverX)) EUB0000618a MAP2K7. To be noted: at 10 µM.

The target in experiment [7] is Tyrosine-protein kinase Yes (Homo sapiens) (UniProt P07947). The experiment can be described thus: Selectivity interaction (KinomeScan (DiscoverX)) EUB0000618a YES1. The settings on record: at 10 µM.
Experiment [8] concerns the target Protein arginine N-methyltransferase 8 (Homo sapiens, UniProt Q9NR22). The experiment can be described thus: Selectivity interaction (Methyltransferase screen (radiometric assays, panel of 8 PRMTs, 21 protein lysine methyltransferases, 3 DNA methyltransferases, and one RNA methyltransferase)) EUB0000272b PRMT8.

Sequence of Activated CDC42 kinase 1 (Q07912 whole entry, looked up): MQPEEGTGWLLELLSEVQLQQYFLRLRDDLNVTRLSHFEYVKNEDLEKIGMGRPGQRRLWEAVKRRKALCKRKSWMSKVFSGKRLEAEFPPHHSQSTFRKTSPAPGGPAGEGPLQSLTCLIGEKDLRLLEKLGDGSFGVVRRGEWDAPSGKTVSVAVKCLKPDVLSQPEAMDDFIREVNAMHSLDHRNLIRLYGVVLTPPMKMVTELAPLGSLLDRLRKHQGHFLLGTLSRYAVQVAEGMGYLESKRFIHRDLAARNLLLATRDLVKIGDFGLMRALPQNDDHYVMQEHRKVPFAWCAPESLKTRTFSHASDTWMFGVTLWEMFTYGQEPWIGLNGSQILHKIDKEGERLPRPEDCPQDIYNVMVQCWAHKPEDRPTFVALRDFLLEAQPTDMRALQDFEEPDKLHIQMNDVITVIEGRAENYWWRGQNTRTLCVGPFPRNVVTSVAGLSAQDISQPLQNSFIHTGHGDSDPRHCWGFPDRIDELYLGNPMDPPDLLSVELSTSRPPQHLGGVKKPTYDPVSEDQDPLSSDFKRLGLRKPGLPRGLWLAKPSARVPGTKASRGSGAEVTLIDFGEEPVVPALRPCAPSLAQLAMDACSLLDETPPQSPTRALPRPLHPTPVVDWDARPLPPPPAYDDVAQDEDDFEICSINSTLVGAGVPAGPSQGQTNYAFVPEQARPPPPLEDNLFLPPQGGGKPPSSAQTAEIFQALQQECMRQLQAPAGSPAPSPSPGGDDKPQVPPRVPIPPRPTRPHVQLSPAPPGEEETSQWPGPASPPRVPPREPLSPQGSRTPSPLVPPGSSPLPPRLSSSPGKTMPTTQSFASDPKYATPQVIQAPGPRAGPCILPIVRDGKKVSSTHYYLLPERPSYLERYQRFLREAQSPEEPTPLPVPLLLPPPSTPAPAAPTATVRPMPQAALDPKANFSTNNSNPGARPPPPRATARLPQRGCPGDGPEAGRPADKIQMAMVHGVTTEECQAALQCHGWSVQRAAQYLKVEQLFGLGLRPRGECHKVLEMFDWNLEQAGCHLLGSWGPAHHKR
Sequence of Protein arginine N-methyltransferase 8 (Q9NR22 2-394 limits assumed): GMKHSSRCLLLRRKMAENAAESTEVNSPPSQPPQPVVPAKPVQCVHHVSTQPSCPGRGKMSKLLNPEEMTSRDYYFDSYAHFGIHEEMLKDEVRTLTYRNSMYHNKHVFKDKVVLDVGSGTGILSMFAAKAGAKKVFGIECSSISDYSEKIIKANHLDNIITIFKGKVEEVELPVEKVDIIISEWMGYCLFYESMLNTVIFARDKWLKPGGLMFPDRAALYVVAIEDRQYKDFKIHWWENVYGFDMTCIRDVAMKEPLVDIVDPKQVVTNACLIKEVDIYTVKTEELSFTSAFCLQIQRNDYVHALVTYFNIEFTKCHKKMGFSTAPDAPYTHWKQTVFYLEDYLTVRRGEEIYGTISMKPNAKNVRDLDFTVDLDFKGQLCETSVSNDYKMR
Sequence of Mitogen-activated protein kinase kinase kinase kinase 5 (Homo sapiens) (Q9Y4K4 whole entry, looked up): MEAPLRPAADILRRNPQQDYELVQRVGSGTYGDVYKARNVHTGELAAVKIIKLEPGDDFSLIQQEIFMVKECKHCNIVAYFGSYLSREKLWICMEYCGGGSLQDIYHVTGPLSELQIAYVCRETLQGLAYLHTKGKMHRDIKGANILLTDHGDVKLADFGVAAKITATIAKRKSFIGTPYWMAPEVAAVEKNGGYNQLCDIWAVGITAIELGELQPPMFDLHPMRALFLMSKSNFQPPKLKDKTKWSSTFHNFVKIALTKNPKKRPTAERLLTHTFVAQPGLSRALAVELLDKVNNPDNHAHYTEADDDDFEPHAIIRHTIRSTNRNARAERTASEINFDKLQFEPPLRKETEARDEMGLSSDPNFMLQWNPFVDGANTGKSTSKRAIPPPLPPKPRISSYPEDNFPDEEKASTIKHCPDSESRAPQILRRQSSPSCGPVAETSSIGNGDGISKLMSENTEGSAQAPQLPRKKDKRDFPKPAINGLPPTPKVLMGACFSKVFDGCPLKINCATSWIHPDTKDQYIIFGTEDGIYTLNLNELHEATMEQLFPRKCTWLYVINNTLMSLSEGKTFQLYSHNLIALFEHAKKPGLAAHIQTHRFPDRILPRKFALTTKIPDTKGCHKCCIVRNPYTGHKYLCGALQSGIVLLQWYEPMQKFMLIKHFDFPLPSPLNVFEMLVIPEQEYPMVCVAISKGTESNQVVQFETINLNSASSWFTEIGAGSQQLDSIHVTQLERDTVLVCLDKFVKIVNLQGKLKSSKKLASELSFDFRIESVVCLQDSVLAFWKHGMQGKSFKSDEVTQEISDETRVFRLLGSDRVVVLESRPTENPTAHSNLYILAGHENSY
Sequence of Serine/threonine-protein kinase 38 (Homo sapiens) (Q15208 2-465 limits assumed): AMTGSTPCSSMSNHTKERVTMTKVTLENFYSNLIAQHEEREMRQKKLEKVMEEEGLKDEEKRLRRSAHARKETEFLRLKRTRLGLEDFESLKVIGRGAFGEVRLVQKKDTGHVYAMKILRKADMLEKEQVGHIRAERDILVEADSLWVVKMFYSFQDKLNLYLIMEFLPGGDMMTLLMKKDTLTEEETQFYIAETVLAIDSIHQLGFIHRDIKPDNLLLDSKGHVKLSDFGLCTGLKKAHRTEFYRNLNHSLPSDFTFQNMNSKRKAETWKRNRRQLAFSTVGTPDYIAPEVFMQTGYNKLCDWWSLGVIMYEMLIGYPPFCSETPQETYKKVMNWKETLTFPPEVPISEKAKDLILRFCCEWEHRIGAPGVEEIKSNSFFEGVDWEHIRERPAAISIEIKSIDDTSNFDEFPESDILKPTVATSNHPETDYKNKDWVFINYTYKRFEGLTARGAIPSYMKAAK
Sequence of Tyrosine-protein kinase Yes (Homo sapiens) (P07947 2-543 limits assumed): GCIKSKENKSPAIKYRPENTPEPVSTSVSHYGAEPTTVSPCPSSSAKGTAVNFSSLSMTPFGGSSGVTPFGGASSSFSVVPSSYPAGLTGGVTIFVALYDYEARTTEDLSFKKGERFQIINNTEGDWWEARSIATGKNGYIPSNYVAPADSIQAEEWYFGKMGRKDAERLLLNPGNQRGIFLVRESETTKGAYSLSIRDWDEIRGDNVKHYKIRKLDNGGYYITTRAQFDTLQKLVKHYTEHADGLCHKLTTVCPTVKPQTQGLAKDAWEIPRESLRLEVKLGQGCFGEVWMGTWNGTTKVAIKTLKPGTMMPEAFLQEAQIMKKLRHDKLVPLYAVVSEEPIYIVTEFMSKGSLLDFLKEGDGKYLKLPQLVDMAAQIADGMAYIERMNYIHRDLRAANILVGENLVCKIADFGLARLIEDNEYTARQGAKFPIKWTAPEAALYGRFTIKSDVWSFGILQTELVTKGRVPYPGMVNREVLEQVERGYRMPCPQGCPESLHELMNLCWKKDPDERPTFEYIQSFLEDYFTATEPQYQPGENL
Sequence of Tyrosine-protein kinase Lck (P06239 2-509 limits assumed): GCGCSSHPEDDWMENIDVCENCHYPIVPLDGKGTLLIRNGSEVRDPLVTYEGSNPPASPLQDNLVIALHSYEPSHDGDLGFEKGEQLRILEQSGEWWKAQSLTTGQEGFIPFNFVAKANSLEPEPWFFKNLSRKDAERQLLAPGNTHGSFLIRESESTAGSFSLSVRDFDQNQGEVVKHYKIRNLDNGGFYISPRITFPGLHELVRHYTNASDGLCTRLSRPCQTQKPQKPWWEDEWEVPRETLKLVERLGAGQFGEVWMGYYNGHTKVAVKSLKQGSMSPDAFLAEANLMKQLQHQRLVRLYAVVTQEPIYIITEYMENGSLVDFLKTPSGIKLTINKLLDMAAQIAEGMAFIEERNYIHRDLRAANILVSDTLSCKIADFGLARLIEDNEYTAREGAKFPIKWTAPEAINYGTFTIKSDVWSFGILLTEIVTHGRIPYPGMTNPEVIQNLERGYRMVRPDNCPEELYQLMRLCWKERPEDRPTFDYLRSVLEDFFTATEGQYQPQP

With `CN(C)CCOc1ccc(-c2nc(-c3ccncc3)c(-c3ccc4c(c3)CC/C4=N\O)[nH]2)cc1`, in experiment [1], the % of control turned out to be 100%.

With `N#Cc1cccc(-c2c[nH]c3ncnc(N4CCOCC4)c23)c1`, the % of inhibition in experiment [2] came out at 16%.

For the molecule `CN1Cc2nccc(-c3cn(C)nc3-c3ccc(F)cc3)c2C1=O`, the % of inhibition in [3] turned out to be 7%.

Turning to `CC[C@@H]1[C@H](F)C(=O)N[C@@H]1COc1nccc2cc(C(N)=O)c(OC)cc12` [ZIMLOVISERTIB], the % of inhibition in experiment [4] was 87.9%.

On to `COc1cc(Nc2nc(C)cc(-c3cnn4nc(OC)ccc34)n2)cc(C(F)(F)F)c1`, for which the % of control in experiment [5] stood at 85%.

On to `C=CC(=O)Nc1cc(-n2c(=O)ccc3cnc4ccc(-c5ccc(NS(C)(=O)=O)cc5)cc4c32)ccc1C`, for which the % of control on Activated CDC42 kinase 1 (at 1 µM) and on Activated CDC42 kinase 1 (at 10 µM) was 100% in each case.

`O[C@H]1CC[C@H](Nc2ncc3nc(Nc4c(F)cc(F)cc4F)n([C@H]4CCOC4)c3n2)CC1`: the % of control in experiment [6] worked out at 94%; in experiment [7], 98%.

Take `Cc1cc(C)cc([C@H]2c3cc(C)ccc3NC(=O)CN2C(=O)c2ccc(Br)s2)c1`: the % of activity in [8] (at 1 µM) amounted to 100%; in [8] (at 10 µM), 96.7%.

The record behind these values is ChEMBL document CHEMBL5465560, “Selectivity Literature for EUbOPEN Chemogenomic Library” (2024).
